Assay type in all cases: in vivo
In test [1] the test system is Cabbage Looper (Trichoplusia ni, TRIPNI). The test is described as follows: Bioassays on Cabbage Looper (CL), 128-well diet tray assay. The note with it: Trichoplusia ni. Put shortly: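 One to five second-instar larvae per well on artificial diet surface-treated with 50 μg/cm^2 test molecule (applied in 90:10 acetone-water, dried). Held 5–7 days at 25° C, 14:10 light-dark; percent mortality recorded per well and averaged over eight wells.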

For test [2], the system named is Yellow Fever Mosquito (Aedes aegypti, AEDSAE). Conditions: for YFM rating: Table ABC / ABC-DP rating. Put shortly:
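Compounds from DMSO master plates (4000 ppm stock) diluted in 90:10 water/acetone, then dispensed into six replicate plates and infested with ~1-day-old Aedes aegypti larvae in liver-powder water. Held covered at room temperature for 3 days; each well scored for larval mortality and graded on a rating scale.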

Test [3] relates to Beet Armyworm (Spodoptera exigua, LAPHEG). Briefly: Bioassays on Beet Armyworm (BAW), 128-well diet tray assay. Conditions: Spodoptera exigua. An outline of the steps:
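Percent larval mortality, averaged across eight wells, scored after five to seven days at 25° C. under 14:10 light-dark. Each well held one to five second instars feeding on diet dosed at 50 μg/cm^2 with compound from 90:10 acetone-water, solvent dried off.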

[4] abbreviates: Table ABC: Biological Results, species CL, read-out: CL.
The mark [5] stands for this setting: Table ABC: Biological Results, species YFM.
The mark [6] stands for this setting: Table ABC: Biological Results, species BAW, read-out: BAW.
[7] abbreviates: Cabbage Looper, Table ABC / ABC-DP rating, read-out: CL rating.
The mark [8] stands for this setting: Beet Armyworm, Table ABC / ABC-DP rating, read-out: BAW rating.
Setting [9] is: Cabbage Looper, rating class, read-out: CL.
The mark [10] stands for this setting: Yellow Fever Mosquito, rating class.
[11] abbreviates: Beet Armyworm, rating class, read-out: BAW.

Where two headings read alike, the source gives them in different places.

For `O=C(Nc1ccc(F)cc1)c1cc(NC(=O)[C@H]2[C@H](c3cc(Cl)c(Cl)c(Br)c3)C2(Cl)Cl)ccc1Cl` (relative stereo) [F1005, trans-5-(3-(3-bromo-4,5-dichlorophenyl)-2,2-dichlorocyclopropane-1-carboxamido)-2-chloro-N-(4-fluorophenyl)benzamide], the pest or weed control at 50 µg/cm2 in test [1] (setting [4]) and in test [3] (setting [6]) was 50 to 100% throughout. In test [2] (setting [5]), the YFM result is “A (80–100)”.

On to `CCOC(C)C(=O)Nc1c(F)ccc(N(C)C(=O)c2cc(NC(=O)[C@H]3[C@H](c4ccc(Cl)c(Cl)c4)C3(Cl)Cl)ccc2Cl)c1F` (stereo partly drawn) [F1794, 2-Chloro-5-((1R,3R)-2,2-dichloro-3-(3,4-dichlorophenyl)cyclopropane-1-carboxamido)-N-(3-(2-ethoxypropanamido)-2,4-difluorophenyl)-N-methylbenzamide], for which the pest or weed control at 50 µg/cm2 in test [1] (setting [7]) and in test [3] (setting [8]) was 50 to 100% throughout. In addition, the YFM rating result in test [2] (Yellow Fever Mosquito) is on record as “B (More than 0 – Less than 80)”.

Regarding `Cc1c(Cl)cc(NC(=O)[C@H]2[C@H](c3ccc(F)c(Cl)c3)C2(Cl)Cl)cc1C(=O)Nc1ccccc1` (relative stereo) [F1188, trans-3-Chloro-5-(2,2-dichloro-3-(3-chloro-4-fluorophenyl)cyclopropane-1-carboxamido)-2-methyl-N-phenylbenzamide], the pest or weed control at 50 µg/cm2 in test [1] (setting [4]) and in test [3] (setting [6]) was 50 to 100% each time. The YFM result in test [2] (setting [5]) is “A (80–100)”.

As to `N#CCC(=O)N(CCF)c1c(F)ccc(NC(=O)c2cc(NC(=O)[C@H]3[C@H](c4ccc(F)c(C(F)(F)F)c4)C3(Cl)Cl)ccc2Cl)c1F` [F1823, 2-Chloro-N-(3-(2-cyano-N-(2-fluoroethyl)acetamido)-2,4-difluorophenyl)-5-((1R,3R)-2,2-dichloro-3-(4-fluoro-3-(trifluoromethyl)phenyl)cyclopropane-1-carboxamido)benzamide], the pest or weed control at 50 µg/cm2 in test [1] (setting [7]) and in test [3] (setting [8]) was 50 to 100% in each case. In addition, the YFM rating entry in test [2] (Yellow Fever Mosquito) was “A (80–100)”.

Take `O=C(Nc1c(F)ccc(NC(=O)c2cc(NC(=O)[C@H]3[C@H](c4ccc(F)c(C(F)(F)F)c4)C3(Cl)Cl)ccc2Cl)c1F)c1ccon1` [F1818, N-(3-(2-Chloro-5-((1R,3R)-2,2-dichloro-3-(4-fluoro-3-(trifluoromethyl)phenyl)cyclopropane-1-carboxamido)benzamido)-2,6-difluorophenyl)isoxazole-3-carboxamide]: the pest or weed control at 50 µg/cm2 in test [1] (setting [7]) and in test [3] (setting [8]) was 50 to 100% throughout. In test [2] (Yellow Fever Mosquito), the YFM rating result is given as “A (80–100)”.

Regarding `O=C(Nc1ccc(F)cc1F)c1cc(NC(=O)[C@H]2[C@H](c3ccc(F)c(C(F)(F)F)c3)C2(Cl)Cl)c(F)cc1Cl` [F1727, 2-Chloro-5-((1R,3R)-2,2-dichloro-3-(4-fluoro-3-(trifluoromethyl)phenyl)cyclopropane-1-carboxamido)-N-(2,4-difluorophenyl)-4-fluorobenzamide], the pest or weed control at 50 µg/cm2 in test [1] (setting [9]) and in test [3] (setting [11]) was 50 to 100% in each case. Also, in test [2] (setting [10]), the YFM result is reported as “A (80–100)”.

Regarding `CC(OC(F)(F)F)C(=O)Nc1c(F)ccc(NC(=O)c2cc(NC(=O)[C@H]3[C@H](c4ccc(F)c(Cl)c4)C3(Cl)Cl)ccc2Cl)c1F` (stereo partly drawn) [F1769, 2-Chloro-5-((1R,3R)-2,2-dichloro-3-(3-chloro-4-fluorophenyl)cyclopropane-1-carboxamido)-N-(2,4-difluoro-3-(2-(trifluoromethoxy)propanamido)phenyl)benzamide], the pest or weed control at 50 µg/cm2 in test [1] (setting [7]) and in test [3] (setting [8]) was 50 to 100% throughout. Also, the YFM rating result in test [2] (Yellow Fever Mosquito) is reported as “A (80–100)”.

In the case of `Nc1c(F)ccc(NC(=O)c2cc(NC(=O)[C@H]3[C@@H](c4cc(Cl)c(Cl)c(C(F)(F)F)c4)C3(Cl)Cl)ccc2Cl)c1F` (relative stereo) [F1150, cis-N-(3-Amino-2,4-difluorophenyl)-2-chloro-5-(2,2-dichloro-3-(3,4-dichloro-5-(trifluoromethyl)phenyl)cyclopropane-1-carboxamido)benzamide], the pest or weed control at 50 µg/cm2 in test [1] (setting [4]) and in test [3] (setting [6]) was 50 to 100% in each case. For the same molecule, the YFM result in test [2] (setting [5]) is recorded as “A (80–100)”.

For the molecule `O=C(NNc1ccccn1)c1cc(NC(=O)[C@H]2[C@H](c3cc(Cl)cc(Cl)c3)C2(Cl)Cl)ccc1Cl` (relative stereo) [F2502, trans-2,2-dichloro-N-(4-chloro-3-(2-(pyridin-2-yl)hydrazine-1-carbonyl)phenyl)-3-(3,5-dichlorophenyl)cyclopropane-1-carboxamide], the pest or weed control at 50 µg/cm2 in test [1] (setting [7]) and in test [3] (setting [8]) was 50 to 100% throughout. Further, the YFM rating entry in test [2] (Yellow Fever Mosquito) was “A (80–100)”.

In the case of `O=C(Nc1ccc(F)c(NC(=O)C(F)F)c1F)c1cc(NC(=O)[C@H]2[C@H](c3cc(Cl)cc(Br)c3)C2(Cl)Cl)ccc1Cl` (relative stereo) [F1618, trans-5-(3-(3-Bromo-5-chlorophenyl)-2,2-dichlorocyclopropane-1-carboxamido)-2-chloro-N-(3-(2,2-difluoroacetamido)-2,4-difluorophenyl)benzamide], the pest or weed control at 50 µg/cm2 in test [1] (setting [9]) and in test [3] (setting [11]) was 50 to 100% throughout. In test [2] (setting [10]), the YFM entry was “A (80–100)”.

Take `O=C(Nc1ccc(F)cc1F)c1cc(NC(=O)[C@H]2[C@H](c3cc(Br)cc(S(F)(F)(F)(F)F)c3)C2(Cl)Cl)ccc1Cl` (relative stereo) [F1031, trans-5-(3-(3-Bromo-5-(pentafluoro-λ^6-sulfanyl)phenyl)-2,2-dichlorocyclopropane-1-carboxamido)-2-chloro-N-(2,4-difluorophenyl)benzamide]: the pest or weed control at 50 µg/cm2 in test [1] (setting [4]) and in test [3] (setting [6]) was 50 to 100% each time. Besides, the YFM result in test [2] (setting [5]) was “A (80–100)”.

As to `O=C(Nc1ccc(F)c(NC(=O)C(F)F)c1F)c1cc(NC(=O)[C@H]2[C@H](c3ccc(Cl)c(Cl)c3)C2(Cl)Cl)cc(F)c1F` [F1443, 5-((1R,3R)-2,2-Dichloro-3-(3,4-dichlorophenyl)cyclopropane-1-carboxamido)-N-(3-(2,2-difluoroacetamido)-2,4-difluorophenyl)-2,3-difluorobenzamide], the pest or weed control at 50 µg/cm2 in test [1] (setting [9]) and in test [3] (setting [11]) was 50 to 100% each time. In addition, in test [2] (setting [10]), the YFM entry is recorded as “A (80–100)”.

Take `Nc1c(F)ccc(NC(=O)c2cc(NC(=O)[C@H]3[C@H](c4cc(Cl)c(Cl)c(C(F)(F)F)c4)C3(Cl)Cl)ccc2Cl)c1F` (relative stereo) [F1149, trans-N-(3-Amino-2,4-difluorophenyl)-2-chloro-5-(2,2-dichloro-3-(3,4-dichloro-5-(trifluoromethyl)phenyl)cyclopropane-1-carboxamido)benzamide]: the pest or weed control at 50 µg/cm2 in test [1] (setting [4]) and in test [3] (setting [6]) was 50 to 100% each time. Also, in test [2] (setting [5]), the YFM result is listed as “A (80–100)”.

For the molecule `COC(C)C(=O)Nc1c(F)ccc(NC(=O)c2cc(NC(=O)[C@H]3[C@H](c4ccc(F)c(C(F)(F)F)c4)C3(Cl)Cl)ccc2Cl)c1F` (stereo partly drawn) [F1712, 2-Chloro-5-((1R,3R)-2,2-dichloro-3-(4-fluoro-3-(trifluoromethyl)phenyl)cyclopropane-1-carboxamido)-N-(2,4-difluoro-3-(2-methoxypropanamido)phenyl)benzamide], the pest or weed control at 50 µg/cm2 in test [1] (setting [9]) and in test [3] (setting [11]) was 50 to 100% each time. In addition, in test [2] (setting [10]), the YFM result is recorded as “A (80–100)”.

As to `C=CCN(C(=O)c1cc(NC(=O)[C@H]2[C@H](c3ccc(F)c(C(F)(F)F)c3)C2(Cl)Cl)ccc1Cl)c1ccc(F)c(N)c1F` (relative stereo) [F1113, trans-N-Allyl-N-(3-amino-2,4-difluorophenyl)-2-chloro-5-(2,2-dichloro-3-(4-fluoro-3-(trifluoromethyl)phenyl)cyclopropane-1-carboxamido)benzamide], the pest or weed control at 50 µg/cm2 in test [1] (setting [4]) and in test [3] (setting [6]) was 50 to 100% in each case. Also, in test [2] (setting [5]), the YFM result is listed as “A (80–100)”.

`O=C(CCC(F)(OC(F)(F)F)C(F)(F)F)Nc1c(F)ccc(NC(=O)c2cc(NC(=O)[C@H]3[C@H](c4ccc(F)c(C(F)(F)F)c4)C3(Cl)Cl)ccc2Cl)c1F` (stereo partly drawn) [F1858, 2-Chloro-5-((1R,3R)-2,2-dichloro-3-(4-fluoro-3-(trifluoromethyl)phenyl)cyclopropane-1-carboxamido)-N-(2,4-difluoro-3-(4,5,5,5-tetrafluoro-4-(trifluoromethoxy)pentanamido)phenyl)benzamide]: the pest or weed control at 50 µg/cm2 in test [1] (setting [7]) and in test [3] (setting [8]) was 50 to 100% each time. In addition, in test [2] (Yellow Fever Mosquito), the YFM rating result was “A (80–100)”.

For `O=C(CC1CC1)Nc1c(F)ccc(NC(=O)c2cc(NC(=O)[C@H]3[C@H](c4ccc(F)c(C(F)(F)F)c4)C3(Cl)Cl)ccc2Cl)c1F` [F1682, 2-Chloro-N-(3-(2-cyclopropylacetamido)-2,4-difluorophenyl)-5-((1R,3R)-2,2-dichloro-3-(4-fluoro-3-(trifluoromethyl)phenyl)cyclopropane-1-carboxamido)benzamide], the pest or weed control at 50 µg/cm2 in test [1] (setting [9]) and in test [3] (setting [11]) was 50 to 100% throughout. In addition, the YFM entry in test [2] (setting [10]) was “A (80–100)”.

The record behind these values is patent US20250228239A1, “MOLECULES HAVING PESTICIDAL UTILITY, AND INTERMEDIATES, COMPOSITIONS, AND PROCESSES, RELATED THERETO” (priority 2024, published 2025).
